Patent US20130225694A1, “COMPOSITIONS AND METHODS OF INHIBITING RETINAL DEGENERATION” (Oklahoma Medical Research Foundation, priority 2012, published 2013)

Legend:
RPE65 isomerohydrolase = target: T1, RPE65 isomerohydrolase (Rattus norvegicus, UniProt O70276); experiment: Isomerohydrolase activity assay with rat RPE microsomes (Example 2); format: biochemical
T1 construct: 50 μg microsomal proteins from the rat RPE were added into 200 μl of reaction buffer; from tissue; host or cells: rat eyecup/RPE microsomes
T1 sequence (O70276 1-533): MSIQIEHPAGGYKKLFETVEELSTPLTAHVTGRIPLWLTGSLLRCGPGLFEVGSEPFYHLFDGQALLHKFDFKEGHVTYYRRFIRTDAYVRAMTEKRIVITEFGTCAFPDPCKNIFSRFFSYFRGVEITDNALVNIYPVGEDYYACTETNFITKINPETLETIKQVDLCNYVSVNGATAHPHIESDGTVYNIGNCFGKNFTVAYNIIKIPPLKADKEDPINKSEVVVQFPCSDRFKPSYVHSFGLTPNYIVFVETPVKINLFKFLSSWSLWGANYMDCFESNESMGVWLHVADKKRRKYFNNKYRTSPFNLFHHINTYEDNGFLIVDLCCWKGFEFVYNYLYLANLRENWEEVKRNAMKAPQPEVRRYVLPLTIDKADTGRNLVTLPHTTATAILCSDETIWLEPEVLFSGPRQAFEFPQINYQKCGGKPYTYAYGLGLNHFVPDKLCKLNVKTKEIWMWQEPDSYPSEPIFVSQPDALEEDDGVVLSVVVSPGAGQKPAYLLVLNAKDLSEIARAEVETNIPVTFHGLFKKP
Method: Isomerohydrolase activity assay and PBN inhibition—Rats were sacrificed, and eyes were enucleated and dissected to remove the anterior part including lens, vitreous, and retina. The remaining eyecups containing RPE were sonicated 3 times for 20 seconds in a cold 0.32 M sucrose/0.1 M sodium phosphate buffer (pH 7.4). The homogenate was centrifuged (20 minutes, 20,000 g) to sediment sclera, unbroken cells, nuclei and mitochondria. The obtained supernatant was recentrifuged (1 hour, 100,000 g), and the microsomal pellet was resuspended in 10 mM 1,3-bis[tris(hydroxymethyl)-methylamino]propane (BTP), (pH 8.0) and 100 mM NaCl, and stored at −80° C. All-trans-[11,12-^3H]-retinol (1 mCi/ml, 45.5 Ci/mmol, American Radiolabeled Chemical, Inc., St. Louis, Mo.) in N,N-dimethyl formamide was used as the substrate for the isomerohydrolase assay. […] The upper layer was collected, and the generated retinoids were analyzed by normal phase HPLC as described (38). […] The isomerohydrolase activity was calculated from the area of the 11-cis-retinol peak using Radiomatic 610TR software (Perkin Elmer, Boston, Mass.) with synthetic 11-cis-[^3H]-retinol as a standard. […] The inhibition constant for PBN was calculated from the following equation: […] where [I]=concentration of PBN, Vm^i=maximal velocity in the presence of Vm=maximal velocity in the absence of PBN. […]

[1] = test system: retinal retinol dehydrogenases (RDHs); experiment: Assay for retinal RDH activity in mouse retinal microsomes; format: biochemical; conditions: 2 mM PBN, NADPH-dependent reduction of all-trans-retinal
Method: Assay for retinal RDH activity—The effect of PBN on retinal dehydrogenase (RDH) enzymes was determined in vitro using mouse retinal microsomes. […] Homogenates were centrifuged at 10,000 g for 10 minutes at 4° C. The resulting supernatants were then centrifuged at 100,000 g for 1 hour at 4° C., and microsomal pellets were resuspended in storage buffer [50 mM Tris-Cl (pH 7.2), 1 mM EDTA, 20% glycerol, 1 mM dithiothreitol, and the protease inhibitors described above]. Protein concentrations were measured, and microsomal fractions were stored at −80° C. after snap freezing in liquid nitrogen.
Reactions were carried out in 1 ml reaction buffer [100 mM Tris-HCl (pH 7.2), 200 mM NaCl, 1 mM dithiothreitol, 2 mg/ml bovine serum albumin, and 1% (v/v) glycerol] with 5 μg of microsomes, 0 or 75 μM of NADPH, 0 or 2 mM PBN, and increasing concentrations of the substrate all-trans-retinal. […] Retinoids were extracted with 2 volumes of hexane and analyzed by HPLC. […] The peaks of all-trans-retinal (substrate) and all-trans-retinol (product of the reaction) were identified and quantified by comparison with pure retinoid isomeric standards. […] For each condition the non-enzymatic conversion of all-trans-retinal to all-trans-retinol measured in absence of NADPH was subtracted from the conversion obtained with NADPH to determine the NADPH-dependant activity of retinal RDHs. […]

`CC(C)(C)/[N+]([O-])=C/c1ccccc1` [Compound 1, α-phenyl-N-tert-butyl nitrone] was tested, and the “inhibition of 11-cis-retinol generation” value (RPE65 isomerohydrolase; 1 mM PBN) was “almost complete inhibition”, the IC50 (RPE65 isomerohydrolase; rat RPE microsomes, 0.2 μM all-trans-[3H]-retinol, 1 h 37° C., read-out: apparent IC50 of isomerohydrolase activity) was 100 µM and the “inhibition of retinal RDH activity” value [1] was “did not inhibit”.
